Experimental data from PubChem BioAssay AID1963984 (Molecular Pharmacology Branch, DTP, NCI, 2024).

Test system: 233499-124-R-J3-PDC spheroids with HUVEC/MSC, viability
Assay: Anticancer human tumor 233499-124-R-J3-PDC patient-derived colon adenocarcinoma cell line growth inhibition [PI3K]
Conditions: for IC50: curve of first compound; for viability, T/C: stronger effect = lower value
Summary of the method: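 Targeted small molecules plus PI3K inhibitors, half-log dose series from Cmax (default top 10 microM), were applied to heterotypic spheroids of cancer cells with HUVEC and MSCs. Viability indicated growth inhibition.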

[1] = second compound 0.0316 µM, first compound 0.0316 µM
[2] = second compound 0.0316 µM, first compound 0.1 µM
[3] = second compound 0.0316 µM, first compound 0.316 µM
[4] = second compound 0.0316 µM, first compound 1 µM
[5] = second compound 0.0316 µM, first compound 3.16 µM
[6] = second compound 0.0316 µM, first compound 10 µM
[7] = second compound 0.1 µM, first compound 0.0316 µM
[8] = second compound 0.1 µM, first compound 0.1 µM
[9] = second compound 0.1 µM, first compound 0.316 µM
[10] = second compound 0.1 µM, first compound 1 µM
[11] = second compound 0.1 µM, first compound 3.16 µM
[12] = second compound 0.1 µM, first compound 10 µM
[13] = second compound 0.316 µM, first compound 0.0316 µM
[14] = second compound 0.316 µM, first compound 0.1 µM
[15] = second compound 0.316 µM, first compound 0.316 µM
[16] = second compound 0.316 µM, first compound 1 µM
[17] = second compound 0.316 µM, first compound 3.16 µM
[18] = second compound 0.316 µM, first compound 10 µM
[19] = second compound 1 µM, first compound 0.0316 µM
[20] = second compound 1 µM, first compound 0.1 µM
[21] = second compound 1 µM, first compound 0.316 µM
[22] = second compound 1 µM, first compound 1 µM
[23] = second compound 1 µM, first compound 3.16 µM
[24] = second compound 1 µM, first compound 10 µM
[25] = second compound 3.16 µM, first compound 0.0316 µM
[26] = second compound 3.16 µM, first compound 0.1 µM
[27] = second compound 3.16 µM, first compound 0.316 µM
[28] = second compound 3.16 µM, first compound 1 µM
[29] = second compound 3.16 µM, first compound 3.16 µM
[30] = second compound 3.16 µM, first compound 10 µM
[31] = second compound 10 µM, first compound 0.0316 µM
[32] = second compound 10 µM, first compound 0.1 µM
[33] = second compound 10 µM, first compound 0.316 µM
[34] = second compound 10 µM, first compound 1 µM
[35] = second compound 10 µM, first compound 3.16 µM
[36] = second compound 10 µM, first compound 10 µM
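Note: spheroids exposed to agents for seven days before readout.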
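Throughout, for viability, T/C: percent viability relative to DMSO vehicle control taken as 100%.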

SMILES: C#Cc1c(F)ccc2cc(O)cc(-c3ncc4c(N5CC6CCC(C5)N6)nc(OCC56CCCN5CC(F)C6)nc4c3F)c12 (stereo unspecified) + CC(Nc1ncnc2nc[nH]c12)c1cc2cccc(Cl)c2c(=O)n1-c1ccccc1
- IC50 (second compound 0.0316 µM): > 10000 nM
- IC50 (second compound 0.1 µM): > 10000 nM
- IC50 (second compound 0.316 µM): > 10000 nM
- IC50 (second compound 1 µM): > 10000 nM
- IC50 (second compound 3.16 µM): > 10000 nM
- IC50 (second compound 10 µM): > 10000 nM
- viability, T/C [1]: 95%
- viability, T/C [2]: 101%
- viability, T/C [3]: 82.5%
- viability, T/C [4]: 90.7%
- viability, T/C [5]: 85.2%
- viability, T/C [6]: 75.5%
- viability, T/C [7]: 113%
- viability, T/C [8]: 114%
- viability, T/C [9]: 81.7%
- viability, T/C [10]: 94.7%
- viability, T/C [11]: 84%
- viability, T/C [12]: 73.2%
- viability, T/C [13]: 112%
- viability, T/C [14]: 92.1%
- viability, T/C [15]: 105%
- viability, T/C [16]: 90.6%
- viability, T/C [17]: 87.9%
- viability, T/C [18]: 69.7%
- viability, T/C [19]: 102%
- viability, T/C [20]: 102%
- viability, T/C [21]: 108%
- viability, T/C [22]: 95.5%
- viability, T/C [23]: 109%
- viability, T/C [24]: 90.6%
- viability, T/C [25]: 110%
- viability, T/C [26]: 94.2%
- viability, T/C [27]: 101%
- viability, T/C [28]: 77.9%
- viability, T/C [29]: 87.5%
- viability, T/C [30]: 55.9%
- viability, T/C [31]: 92.8%
- viability, T/C [32]: 89.4%
- viability, T/C [33]: 87.5%
- viability, T/C [34]: 84.7%
- viability, T/C [35]: 108%
- viability, T/C [36]: 84.7%

SMILES: CC1(C)CCC(Nc2ncc(C(F)(F)F)c(-c3c[nH]c4c(P(C)(C)=O)c(C#N)ccc34)n2)CN1 (stereo unspecified) + CC(Nc1ncnc2nc[nH]c12)c1cc2cccc(Cl)c2c(=O)n1-c1ccccc1
- IC50 (second compound 0.0316 µM): 202 nM
- IC50 (second compound 0.1 µM): 210 nM
- IC50 (second compound 0.316 µM): 90.3 nM
- IC50 (second compound 1 µM): 170 nM
- IC50 (second compound 3.16 µM): 273 nM
- IC50 (second compound 10 µM): < 31.6 nM
- viability, T/C [1]: 88.8%
- viability, T/C [2]: 52.3%
- viability, T/C [3]: 40%
- viability, T/C [4]: 50.8%
- viability, T/C [5]: 25.2%
- viability, T/C [6]: 20.1%
- viability, T/C [7]: 93%
- viability, T/C [8]: 50.4%
- viability, T/C [9]: 49%
- viability, T/C [10]: 30.9%
- viability, T/C [11]: 29.8%
- viability, T/C [12]: 6.77%
- viability, T/C [13]: 66.7%
- viability, T/C [14]: 46%
- viability, T/C [15]: 30.7%
- viability, T/C [16]: 32.2%
- viability, T/C [17]: 34%
- viability, T/C [18]: 10.2%
- viability, T/C [19]: 81.8%
- viability, T/C [20]: 50.5%
- viability, T/C [21]: 51%
- viability, T/C [22]: 28.2%
- viability, T/C [23]: 22.7%
- viability, T/C [24]: 22.6%
- viability, T/C [25]: 75.9%
- viability, T/C [26]: 67.2%
- viability, T/C [27]: 46.8%
- viability, T/C [28]: 27.5%
- viability, T/C [29]: 23.2%
- viability, T/C [30]: 4.38%
- viability, T/C [31]: 52.3%
- viability, T/C [32]: 36.4%
- viability, T/C [33]: 49.6%
- viability, T/C [34]: 20.7%
- viability, T/C [35]: 38.8%
- viability, T/C [36]: 6.16%

SMILES: Cn1cnc2c(F)c(Nc3ccc(Br)cc3Cl)c(C(=O)NOCCO)cc21 + COc1c(OCCCN2CCOCC2)ccc2c3n(c(=NC(=O)c4cnc(N)nc4)nc12)CCN3
- IC50 (second compound 0.00316 µM): 378 nM
- IC50 (second compound 0.01 µM): 760 nM
- IC50 (second compound 0.0316 µM): 131 nM
- IC50 (second compound 0.1 µM): 54 nM
- IC50 (second compound 0.316 µM): < 9.49 nM
- IC50 (second compound 1 µM): < 9.49 nM
- viability, T/C (second compound 0.00316 µM, first compound 0.00949 µM): 55.7%
- viability, T/C (second compound 0.00316 µM, first compound 0.03 µM): 73.5%
- viability, T/C (second compound 0.00316 µM, first compound 0.0949 µM): 76.5%
- viability, T/C (second compound 0.00316 µM, first compound 0.3 µM): 54.9%
- viability, T/C (second compound 0.00316 µM, first compound 0.949 µM): 31.2%
- viability, T/C (second compound 0.00316 µM, first compound 3 µM): 29.5%
- viability, T/C (second compound 0.01 µM, first compound 0.00949 µM): 75.2%
- viability, T/C (second compound 0.01 µM, first compound 0.03 µM): 80.8%
- viability, T/C (second compound 0.01 µM, first compound 0.0949 µM): 75.5%
- viability, T/C (second compound 0.01 µM, first compound 0.3 µM): 56%
- viability, T/C (second compound 0.01 µM, first compound 0.949 µM): 50.3%
- viability, T/C (second compound 0.01 µM, first compound 3 µM): 24.6%
- viability, T/C (second compound 0.0316 µM, first compound 0.00949 µM): 68.3%
- viability, T/C (second compound 0.0316 µM, first compound 0.03 µM): 78.9%
- viability, T/C (second compound 0.0316 µM, first compound 0.0949 µM): 54.1%
- viability, T/C (second compound 0.0316 µM, first compound 0.3 µM): 34.2%
- viability, T/C (second compound 0.0316 µM, first compound 0.949 µM): 30.4%
- viability, T/C (second compound 0.0316 µM, first compound 3 µM): 20.1%
- viability, T/C (second compound 0.1 µM, first compound 0.00949 µM): 71.5%
- viability, T/C (second compound 0.1 µM, first compound 0.03 µM): 67.5%
- viability, T/C (second compound 0.1 µM, first compound 0.0949 µM): 33.1%
- viability, T/C (second compound 0.1 µM, first compound 0.3 µM): 28.2%
- viability, T/C (second compound 0.1 µM, first compound 0.949 µM): 19.1%
- viability, T/C (second compound 0.1 µM, first compound 3 µM): 17.9%
- viability, T/C (second compound 0.316 µM, first compound 0.00949 µM): 41.3%
- viability, T/C (second compound 0.316 µM, first compound 0.03 µM): 34.2%
- viability, T/C (second compound 0.316 µM, first compound 0.0949 µM): 13.1%
- viability, T/C (second compound 0.316 µM, first compound 0.3 µM): 10.2%
- viability, T/C (second compound 0.316 µM, first compound 0.949 µM): 5.14%
- viability, T/C (second compound 0.316 µM, first compound 3 µM): 6.9%
- viability, T/C (second compound 1 µM, first compound 0.00949 µM): 2.93%
- viability, T/C (second compound 1 µM, first compound 0.03 µM): 7.86%
- viability, T/C (second compound 1 µM, first compound 0.0949 µM): 4.9%
- viability, T/C (second compound 1 µM, first compound 0.3 µM): 0.96%
- viability, T/C (second compound 1 µM, first compound 0.949 µM): 1.18%
- viability, T/C (second compound 1 µM, first compound 3 µM): 1.01%
